# Measurements published in US10669272B2, “Substituted naphthyridinone compounds useful as T cell activators” (BRISTOL-MYERS SQUIBB COMPANY, priority 2018, dated 2020).
# Read-outs that look alike come from different tables or passages of the source.
# Legend:
# human DGKα = target: T1, human DGKα (Homo sapiens, UniProt P23743); assay: DGKα LIPGLO assay (extruded liposome substrate), in vitro DGK inhibition; assay type: biochemical; details: read-out: DGKa LIPGLO IC50
# T1 construct: TVMV protease cleavage site (C); Hexa-His (C); made in house; host or cells: Sf9 insect cells (baculovirus, Bac-to-Bac)
# human DGKζ = target: T2, human DGKζ (Homo sapiens, UniProt Q13574); assay: DGKζ LIPGLO assay (extruded liposome substrate), in vitro DGK inhibition; assay type: biochemical; details: read-out: DGKz LIPGLO IC50
# T2 construct: TVMV protease cleavage site (C); Hexa-His (C); made in house; host or cells: Sf9 insect cells (baculovirus, Bac-to-Bac)
# T2 sequence (Q13574 with tags, fused parts or gaps isoform Q13574-4): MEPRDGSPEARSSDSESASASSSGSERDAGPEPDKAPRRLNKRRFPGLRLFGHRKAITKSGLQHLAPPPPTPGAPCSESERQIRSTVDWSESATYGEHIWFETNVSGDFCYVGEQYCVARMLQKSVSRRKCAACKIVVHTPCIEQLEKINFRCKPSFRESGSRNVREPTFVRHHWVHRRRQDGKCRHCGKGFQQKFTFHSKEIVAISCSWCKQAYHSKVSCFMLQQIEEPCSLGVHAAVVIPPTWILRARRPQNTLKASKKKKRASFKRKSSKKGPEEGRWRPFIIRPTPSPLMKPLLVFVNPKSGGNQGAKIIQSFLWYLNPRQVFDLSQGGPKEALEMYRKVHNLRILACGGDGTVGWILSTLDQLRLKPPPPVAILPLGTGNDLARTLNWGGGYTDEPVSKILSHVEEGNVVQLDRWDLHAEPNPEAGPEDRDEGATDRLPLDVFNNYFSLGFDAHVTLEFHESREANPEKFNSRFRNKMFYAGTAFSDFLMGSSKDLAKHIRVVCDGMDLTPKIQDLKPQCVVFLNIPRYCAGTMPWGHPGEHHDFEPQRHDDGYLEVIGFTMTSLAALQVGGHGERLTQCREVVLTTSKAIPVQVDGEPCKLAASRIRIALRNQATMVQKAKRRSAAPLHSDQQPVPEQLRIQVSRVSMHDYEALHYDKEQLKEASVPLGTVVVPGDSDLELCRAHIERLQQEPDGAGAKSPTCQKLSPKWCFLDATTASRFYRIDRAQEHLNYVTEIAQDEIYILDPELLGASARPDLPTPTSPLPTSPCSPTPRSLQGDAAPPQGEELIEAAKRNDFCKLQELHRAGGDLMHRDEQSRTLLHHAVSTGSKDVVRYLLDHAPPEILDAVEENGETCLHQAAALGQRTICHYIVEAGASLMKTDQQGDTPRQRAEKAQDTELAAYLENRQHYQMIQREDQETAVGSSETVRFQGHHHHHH
# T1 sequence (P23743 with tags, fused parts or gaps): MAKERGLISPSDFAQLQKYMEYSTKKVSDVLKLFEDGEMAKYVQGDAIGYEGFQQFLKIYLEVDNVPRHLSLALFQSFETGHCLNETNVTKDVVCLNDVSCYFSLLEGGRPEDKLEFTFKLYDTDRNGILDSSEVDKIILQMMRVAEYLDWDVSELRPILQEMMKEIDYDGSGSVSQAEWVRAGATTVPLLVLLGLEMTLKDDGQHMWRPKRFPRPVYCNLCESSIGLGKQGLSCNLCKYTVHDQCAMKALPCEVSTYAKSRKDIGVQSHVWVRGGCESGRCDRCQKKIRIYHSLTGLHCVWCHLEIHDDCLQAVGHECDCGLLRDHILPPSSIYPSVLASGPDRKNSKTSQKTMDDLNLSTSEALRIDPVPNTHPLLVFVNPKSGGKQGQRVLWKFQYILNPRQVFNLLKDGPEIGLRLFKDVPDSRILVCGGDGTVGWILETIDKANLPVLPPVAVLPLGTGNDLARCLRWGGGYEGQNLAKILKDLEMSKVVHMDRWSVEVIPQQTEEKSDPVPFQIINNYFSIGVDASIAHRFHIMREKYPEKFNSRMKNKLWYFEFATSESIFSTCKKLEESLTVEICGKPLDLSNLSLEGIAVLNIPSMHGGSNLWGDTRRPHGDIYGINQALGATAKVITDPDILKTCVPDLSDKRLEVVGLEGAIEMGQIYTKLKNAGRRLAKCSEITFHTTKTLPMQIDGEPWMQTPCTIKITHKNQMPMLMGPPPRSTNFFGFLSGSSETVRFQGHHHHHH
SMILES,IC50 (human DGKα; liposome (LIPGLO) assay),IC50 (human DGKζ; liposome (LIPGLO) assay),IC50 (human DGKα; DGKα liposome (LIPGLO) assay),IC50 (human DGKζ; DGKζ liposome (LIPGLO) assay)
CC(c1ccc(C(=O)O)cc1)N1C[C@H](C)N(c2c(C#N)c(=O)n(C)c3ccc(C#N)nc23)C[C@H]1C (stereo partly drawn) [Example 786],–,–,> 250 µM,83 µM
"CC(c1ccccn1)N1CCN(c2c(C#N)c(=O)n(C)c3ccc(C#N)nc23)C[C@H]1C (single isomer, unassigned) [Example 965]",–,–,0.96 µM,60 µM
"C[C@@H]1CN(c2cc(=O)n(C)c3ccc(C#N)nc23)[C@@H](C)CN1C(c1ccc(F)cc1)C1CCOCC1 (single isomer, unassigned) [Example 388]",8.5 µM,14 µM,–,–
C[C@@H]1CN(c2c(C#N)c(=O)n(C)c3ccc(C#N)nc23)CCN1C(c1ccc(Cl)cc1)c1ccc(Cl)cn1 (stereo partly drawn) [Example 931],–,–,0.8 µM,2.7 µM
"C[C@@H]1CN(c2c(C#N)c(=O)n(C)c3ccc(C#N)nc23)CCN1C(c1ccc(F)cc1)c1ccncn1 (single isomer, unassigned) [Example 312]",0.71 µM,3.4 µM,–,–
"C[C@@H]1CN(c2cc(=O)n(C)c3ccc(C#N)nc23)[C@@H](C)CN1C(c1ccc(F)cc1)c1cncc(F)c1 (single isomer, unassigned) [Example 386]",2.3 µM,4.6 µM,–,–
"C[C@@H]1CN(c2cc(=O)n(C)c3ccc(C#N)nc23)[C@@H](C)CN1C(c1ccc(Cl)cc1)c1ccc2c(c1)OC(F)(F)O2 (single isomer, unassigned) [Example 656]",23 µM,4 µM,–,–
"Cc1c(F)ccc(C(C)N2C[C@H](C)N(c3cc(=O)n(C)c4ccc(C#N)nc34)C[C@H]2C)c1Cl (single isomer, unassigned) [Example 487]",41 µM,11 µM,–,–
Cc1ccc(CN2CCN(c3c(C#N)c(=O)n(C)c4ccc(C#N)nc34)C[C@H]2C)cc1 [Example 1007],–,–,0.42 µM,3.9 µM
"CC(c1cc(F)c(F)cc1Cl)N1C[C@H](C)N(c2cc(=O)n(C)c3ccc(C#N)nc23)C[C@H]1C (stereo partly drawn) [Example 486, 8-((2S,5R)-4-(1-(2-chloro-4,5-difluorophenyl)ethyl)-2,5-dimethylpiperazin-1-yl)-5-methyl-6-oxo-5,6-dihydro-1,5-naphthyridine-2-carbonitrile]",27 µM,14 µM,–,–

# The remaining lines, values ahead:
IC50 (human DGKα; liposome (LIPGLO) assay),IC50 (human DGKζ; liposome (LIPGLO) assay),IC50 (human DGKα; DGKα liposome (LIPGLO) assay),IC50 (human DGKζ; DGKζ liposome (LIPGLO) assay),SMILES
3.5 µM,0.15 µM,–,–,"CC(c1cc(F)c(F)c(F)c1)N1C[C@H](C)N(c2cc(=O)n(C)c3ccc(C#N)nc23)C[C@H]1C (single isomer, unassigned) [Example 1240]"
0.51 µM,0.12 µM,–,–,"CC[C@@H]1CN(c2cc(=O)n(C)c3ccc(C#N)nc23)[C@@H](C)CN1C(C)c1c(F)cc(F)cc1F (single isomer, unassigned) [Example 1089]"
–,–,0.35 µM,1.4 µM,Cc1cccc(CN2CCN(c3c(C#N)c(=O)n(C)c4ccc(C#N)nc34)C[C@H]2C)c1 [Example 1012]
18 µM,18 µM,–,–,"Cc1ccc(C(c2ccc(C)cc2)N2C[C@H](C)N(c3cc(=O)n(C)c4ccc(C#N)nc34)C[C@H]2CO)cc1 [Example 1150, 8-((2S,5S)-4-(di-p-tolylmethyl)-5-(hydroxymethyl)-2-methylpiperazin-1-yl)-5-methyl-6-oxo-5,6-dihydro-1,5-naphthyridine-2-carbonitrile]"
0.16 µM,0.05 µM,–,–,"CC[C@H]1CN(C(c2ccc(F)cc2)c2csc(C(F)(F)F)n2)[C@H](CC)CN1c1cc(=O)n(C)c2ccc(C#N)nc12 (single isomer, unassigned) [Example 1362]"
0.71 µM,0.84 µM,–,–,"CC[C@H]1CN(C(c2ccc(C)cc2)c2ccc(Cl)cc2)[C@H](C)CN1c1cc(=O)n(C)c2ccc(C#N)nc12 (single isomer, unassigned) [Example 1122]"
0.83 µM,0.28 µM,–,–,CC[C@@H]1CN(c2cc(=O)n(C)c3ccc(C#N)nc23)[C@@H](C)CN1C(CC1CCCCC1)c1ccc(OC(F)(F)F)cc1 (stereo partly drawn) [Example 1195]
100 µM,6.1 µM,–,–,"C[C@@H]1CN(c2cc(=O)n(C)c3ccc(C#N)nc23)[C@@H](C)CN1C(c1ccc(F)cc1)c1ccc(P(C)(C)=O)cc1 (single isomer, unassigned) [Example 1293]"
